Measurements reported in patent publication US20250057958A1, “CYTOTOXICITY TARGETING CHIMERAS FOR CCR2-EXPRESSING CELLS” (GLAXOSMITHKLINE INTELLECTUAL PROPERTY DEVELOPMENT LIMITED, priority 2022, published 2025).
pIC50: −log10 of the molar value.

Experiments:
[1] = molecular target: T1, CHOK1 cells engineered to overexpress human CCR2 (Homo sapiens, UniProt P41597); assay: Antibody dependent cellular cytotoxicity (ADCC) reporter assay; format: cell-based; details: with anti-cotinine antibody (SEQ ID NO: 11/12, human IgG1 Fc S239D/I332E); Jurkat FcγRIIIa NFAT-luciferase reporter cells; 12-18 hours; average if more than one run; read-out: ADCC Reporter Assay pEC50 (converted)
T1 construct: expressed in transfected cells; host or cells: CHOK1 cells
Description: An antibody dependent cellular cytoxocity reporter assay was conducted using the following four assay components: (i) ARM compound of Formula (I) targeting CCR2 (concentrations ranging from 1 pM to 10 μM) (ii) anti-cotinine antibody having a heavy chain sequence of SEQ ID NO: 11 and a light chain sequence of SEQ ID NO: 12 (rabbit variable region with human IgG1 Fc domain containing a DE mutation (S239D/I332E)) (concentrations ranging from 0.01 μg/mL to 200 μg/mL); (iii) target cells: CHOK1 cells engineered to overexpress either human CCR2 (typically 1000-20,000 cells perwell) and (iv) reporter cells: Jurkat cells engineered to express FcγRIIIa with the reporter gene luciferase under the control of the NFAT promoter (typically 3000-75,000 cells per well). Reagents were combined in a final volume of 20 μL in a 384—well tissue culture treated plate. All four assay components were incubated together for about 12-18 hours. Thereafter, BioGlo Detection reagent (Promega) was added to the wells to lyse the cells and provide a substrate for the luciferase reporter protein. Luminescence signal was measured on a microplate reader and signal:background was calculated by dividing the signal of a test well by the signal obtained when no ARM compound of Formula (I) was added. EC50 calculations were done using Graphpad Prism Software, specifically a nonlinear regression curve fit (Y=Bottom+(Top−Bottom)/(1+10 ^((Log EC50−X)*HillSlope))).
ARMs compounds of Formula (I) of the invention were tested for ADCC activity in the above assay in or more experimental runs and the results are shown in Table 3 below. Potency of the compounds of Formula (I) of the invention is reported as a pEC50 value. The pEC50 value is the negative log of the EC50 value, wherein the EC50 value is the half maximal effective concentration measured in molar (M). For compounds tested in more than one experimental run, the pEC50 value is reported as an average.

[2] = molecular target: human alpha1 nicotinic acetylcholine (nACh) receptor (Homo sapiens, UniProt P02708+Q07001); assay: Nicotinic acetylcholine receptor antagonism assay (IONFlux automated patch clamp); format: cell-based; details: for pIC50: nAChR antagonism, stimulated with ACh, average if more than one run
Description: Cells expressing human alpha1 nicotinic acetylcholine (nACh) receptor (nAChR) were washed and dissociated using Trypsin containing buffer. Cells were then washed and seeded at a density of 3-5 million cells/mL and allowed to grow for 3 days. […] The receptor was then stimulated via addition of acetylcholine (ACh) and activation of the receptor was monitored via the IONFlux automated patch clamp system. IonFlux Data Analyzer software was utilized to perform leak subtraction and measure (min) peak current amplitude.
Data processing: (1) Current values recorded for vehicle only applications in individual traps/patterns were subtracted from corresponding current amplitude values for control, test article and control+test article. (2) Control response was calculated as % of the average response of the 3rd out of total 3 ACh (10 mM) applications alone. In rare situations, if the 3rd ACh response was obscured due to technical artifacts, the 2nd and/or 1st ACh (10 mM) application was considered as control. The peak current amplitude generated in the presence of each test article concentration was then used to calculate the % inhibition as compared to control response (10 mM ACh alone). These estimates were further corrected for vehicle response and run down corrected by normalizing with time matched control responses (10 mM ACh alone). The corrected percentages were then fit with a non-linear function in GraphPad Prism 6 (or later versions) to determine the IC50.
Exclusion criteria: (i) any n's with poor recording quality, (ii) control current amplitude <500 pA or (iii) significant outliers, as determined by the Grubbs' test.
ARMs compounds of Formula (I) of the invention were tested for antagonism of the nAChR in the above assay in […] experimental runs and the results are shown in Table 5 below. Antagonistic activity of the compounds of Formula (I) of the invention is reported as an IC50 value (half maximal inhibitory concentration) and the maximum percentage antagonism observed at the highest concentration of compound of Formula (I) tested, as indicated in Table 5. For compounds tested in more than one experimental run, the IC50 value is reported as an average.

human alpha1 nicotinic acetylcholine (nACh) receptor, sequence (P02708 21-457): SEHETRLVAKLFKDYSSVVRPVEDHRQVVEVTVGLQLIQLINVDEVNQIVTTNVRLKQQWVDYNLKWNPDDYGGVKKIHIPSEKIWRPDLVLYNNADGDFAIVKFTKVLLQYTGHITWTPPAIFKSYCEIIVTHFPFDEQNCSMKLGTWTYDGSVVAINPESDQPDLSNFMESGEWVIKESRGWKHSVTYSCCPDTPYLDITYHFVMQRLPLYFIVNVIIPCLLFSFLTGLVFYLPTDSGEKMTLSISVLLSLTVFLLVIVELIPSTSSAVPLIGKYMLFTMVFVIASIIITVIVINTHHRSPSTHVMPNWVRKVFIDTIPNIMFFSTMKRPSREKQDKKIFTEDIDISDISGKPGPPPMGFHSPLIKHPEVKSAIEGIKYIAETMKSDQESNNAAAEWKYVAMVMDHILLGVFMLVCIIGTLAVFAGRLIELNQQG
human alpha1 nicotinic acetylcholine (nACh) receptor, sequence (P11230 24-501 partner): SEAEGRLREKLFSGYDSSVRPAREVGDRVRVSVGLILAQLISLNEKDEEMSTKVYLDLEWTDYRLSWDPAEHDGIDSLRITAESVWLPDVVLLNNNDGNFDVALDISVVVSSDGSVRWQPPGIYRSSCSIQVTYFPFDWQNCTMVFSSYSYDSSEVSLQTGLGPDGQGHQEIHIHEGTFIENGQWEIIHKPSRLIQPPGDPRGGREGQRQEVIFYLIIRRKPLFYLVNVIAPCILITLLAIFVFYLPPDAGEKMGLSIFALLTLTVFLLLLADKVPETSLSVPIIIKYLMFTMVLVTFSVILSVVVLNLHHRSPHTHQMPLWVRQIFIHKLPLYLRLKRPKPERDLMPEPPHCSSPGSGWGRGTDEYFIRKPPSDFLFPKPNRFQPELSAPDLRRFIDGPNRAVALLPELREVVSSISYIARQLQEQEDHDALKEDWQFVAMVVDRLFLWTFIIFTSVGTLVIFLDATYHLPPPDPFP
human alpha1 nicotinic acetylcholine (nACh) receptor, sequence (Q07001 22-517): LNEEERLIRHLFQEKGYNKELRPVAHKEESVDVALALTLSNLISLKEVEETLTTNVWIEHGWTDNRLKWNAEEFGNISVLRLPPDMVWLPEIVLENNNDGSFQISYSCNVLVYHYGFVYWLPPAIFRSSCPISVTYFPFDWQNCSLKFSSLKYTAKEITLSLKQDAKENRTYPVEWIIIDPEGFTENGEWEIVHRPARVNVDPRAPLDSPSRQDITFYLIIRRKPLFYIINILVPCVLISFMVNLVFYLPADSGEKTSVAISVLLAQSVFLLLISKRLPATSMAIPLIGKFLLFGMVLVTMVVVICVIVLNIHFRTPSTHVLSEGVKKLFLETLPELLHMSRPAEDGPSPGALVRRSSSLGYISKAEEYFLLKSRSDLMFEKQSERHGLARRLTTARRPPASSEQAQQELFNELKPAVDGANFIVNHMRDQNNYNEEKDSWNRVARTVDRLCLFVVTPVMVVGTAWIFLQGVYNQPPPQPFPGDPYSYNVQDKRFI

Structure (SMILES) | EC50 [1] | pIC50 [2] | other results
CC(=O)N[C@@H]1C[C@H](NC(C)(C)C)CC[C@@H]1N1CC[C@H](Nc2nc(NCC3CCN(C(=O)[C@H]4CC[C@H](NC(=O)CCCO[C@H]5CC[C@H](OCCNC(=O)[C@H]6CC(=O)N(C)[C@@H]6c6cccnc6)CC5)CC4)CC3)nc3ccc(C(F)(F)F)cc23)C1=O [Example 2, (2S,3S)-N-(2-(((1R,4S)-4-(4-(((1S,4R)-4-(4-(((4-(((S)-1-((1S,2R,4R)-2-Acetamido-4-(tert-butylamino)cyclohexyl)-2-oxopyrrolidin-3-yl)amino)-6-(trifluoromethyl)quinazolin-2-yl)amino)methyl)piperidine-1-carbonyl)cyclohexyl)amino)-4-oxobutoxy)cyclohexyl)oxy)ethyl)-1-methyl-5-oxo-2-(pyridin-3-yl)pyrrolidine-3-carboxamide] | 0.316 nM | < 4.95 | Emax at 11.11 µM ([2]; maximum percentage antagonism at highest concentration tested, 11.11 μM, read-out: Maximum Response (%)): 9%
CC(=O)N[C@@H]1C[C@H](NC(C)(C)C)CC[C@@H]1N1CC[C@H](Nc2nc(CCNC(=O)[C@H]3CC[C@H](NC(=O)CCCO[C@H]4CC[C@H](OCCNC(=O)[C@H]5CC(=O)N(C)[C@@H]5c5cccnc5)CC4)CC3)nc3ccc(C(F)(F)F)cc23)C1=O [Example 4, (2S,3S)-N-(2-(((1R,4S)-4-(4-(((1S,4R)-4-((2-(4-(((S)-1-((1S,2R,4R)-2-Acetamido-4-(tert-butylamino)cyclohexyl)-2-oxopyrrolidin-3-yl)amino)-6-(trifluoromethyl)quinazolin-2-yl)ethyl)carbamoyl)cyclohexyl)amino)-4-oxobutoxy)cyclohexyl)oxy)ethyl)-1-methyl-5-oxo-2-(pyridin-3-yl)pyrrolidine-3-carboxamide] | 0.251 nM | < 4.00 | Emax at 100 µM ([2]; maximum percentage antagonism at highest concentration tested, 100 μM, read-out: Maximum Response (%)): 48%
CC(=O)N[C@@H]1C[C@H](N(C)C(C)C)CC[C@@H]1N1CC[C@H](Nc2nc(CCCNC(=O)[C@H]3CC[C@H](NC(=O)CCCO[C@H]4CC[C@H](OCCNC(=O)[C@H]5CC(=O)N(C)[C@@H]5c5cccnc5)CC4)CC3)nc3ccc(C(F)(F)F)cc23)C1=O [Example 6, (2S,3S)-N-(2-(((1R,4S)-4-(4-(((1S,4R)-4-((3-(4-(((S)-1-((1S,2R,4R)-2-Acetamido-4-(isopropyl(methyl)amino)cyclohexyl)-2-oxopyrrolidin-3-yl)amino)-6-(trifluoromethyl)quinazolin-2-yl)propyl)carbamoyl)cyclohexyl)amino)-4-oxobutoxy)cyclohexyl)oxy)ethyl)-1-methyl-5-oxo-2-(pyridin-3-yl)pyrrolidine-3-carboxamide] | 0.158 nM | < 4.48 | Emax at 33.3 µM ([2]; maximum percentage antagonism at highest concentration tested, 33.3 μM, read-out: Maximum Response (%)): 48%
CC(=O)N[C@@H]1C[C@H](NC(C)(C)C)CC[C@@H]1N1CC[C@H](Nc2nc(OC3CCN(C(=O)[C@H]4CC[C@H](NC(=O)CCCO[C@H]5CC[C@H](OCCNC(=O)[C@H]6CC(=O)N(C)[C@@H]6c6cccnc6)CC5)CC4)CC3)nc3ccc(C(F)(F)F)cc23)C1=O [Example 7, (2S,3S)-N-(2-(((1R,4S)-4-(4-(((1S,4R)-4-(4-((4-(((S)-1-((1S,2R,4R)-2-acetamido-4-(tert-butylamino)cyclohexyl)-2-oxopyrrolidin-3-yl)amino)-6-(trifluoromethyl)quinazolin-2-yl)oxy)piperidine-1-carbonyl)cyclohexyl)amino)-4-oxobutoxy)cyclohexyl)oxy)ethyl)-1-methyl-5-oxo-2-(pyridin-3-yl)pyrrolidine-3-carboxamide] | 79.4 nM |  | 
CC(=O)N[C@@H]1C[C@H](NC(C)(C)C)CC[C@@H]1N1CC[C@H](Nc2nc(OCC3CCN(C(=O)[C@H]4CC[C@H](NC(=O)CCCO[C@H]5CC[C@H](OCCNC(=O)[C@H]6CC(=O)N(C)[C@@H]6c6cccnc6)CC5)CC4)CC3)nc3ccc(C(F)(F)F)cc23)C1=O [Example 8, (2S,3S)-N-(2-(((1R,4S)-4-(4-(((1S,4R)-4-(4-(((4-(((S)-1-((1S,2R,4R)-2-Acetamido-4-(tert-butylamino)cyclohexyl)-2-oxopyrrolidin-3-yl)amino)-6-(trifluoromethyl)quinazolin-2-yl)oxy)methyl)piperidine-1-carbonyl)cyclohexyl)amino)-4-oxobutoxy)cyclohexyl)oxy)ethyl)-1-methyl-5-oxo-2-(pyridin-3-yl)pyrrolidine-3-carboxamide] | 50.1 nM |  | 
CC(=O)N[C@@H]1C[C@H](NC(C)(C)C)CC[C@@H]1N1CC[C@H](Nc2nc(C3CCN(C(=O)[C@H]4CC[C@H](NC(=O)CCCO[C@H]5CC[C@H](OCCNC(=O)[C@H]6CC(=O)N(C)[C@@H]6c6cccnc6)CC5)CC4)CC3)nc3ccc(C(F)(F)F)cc23)C1=O [Example 9, (2S,3S)-N-(2-(((1R,4S)-4-(4-(((1S,4R)-4-(4-(4-(((S)-1-((1S,2R,4R)-2-Acetamido-4-(tert-butylamino)cyclohexyl)-2-oxopyrrolidin-3-yl)amino)-6-(trifluoromethyl)quinazolin-2-yl)piperidine-1-carbonyl)cyclohexyl)amino)-4-oxobutoxy)cyclohexyl)oxy)ethyl)-1-methyl-5-oxo-2-(pyridin-3-yl)pyrrolidine-3-carboxamide] | 0.631 nM | < 4.95 | Emax at 11.1 µM ([2]; maximum percentage antagonism at highest concentration tested, 11.1 μM, read-out: Maximum Response (%)): 2%
CC(=O)N[C@@H]1C[C@H](NC(C)(C)C)CC[C@@H]1N1CC[C@H](Nc2nc(NCCNC(=O)[C@H]3CC[C@H](NC(=O)CCCO[C@H]4CC[C@H](OCCNC(=O)[C@H]5CC(=O)N(C)[C@@H]5c5cccnc5)CC4)CC3)nc3ccc(C(F)(F)F)cc23)C1=O [Example 12, (2S,3S)-N-(2-(((1R,4S)-4-(4-(((1S,4R)-4-((2-((4-(((S)-1-((1S,2R,4R)-2-Acetamido-4-(tert-butylamino)cyclohexyl)-2-oxopyrrolidin-3-yl)amino)-6-(trifluoromethyl)quinazolin-2-yl)amino)ethyl)carbamoyl)cyclohexyl)amino)-4-oxobutoxy)cyclohexyl)oxy)ethyl)-1-methyl-5-oxo-2-(pyridin-3-yl)pyrrolidine-3-carboxamide] | 0.251 nM |  | 
CC(=O)N[C@@H]1C[C@H](NC(C)(C)C)CC[C@@H]1N1CC[C@H](Nc2nc(NC3CCN(C(=O)[C@H]4CC[C@H](NC(=O)CCCO[C@H]5CC[C@H](OCCNC(=O)[C@H]6CC(=O)N(C)[C@@H]6c6cccnc6)CC5)CC4)CC3)nc3ccc(C(F)(F)F)cc23)C1=O [Example 13, (2S,3S)-N-(2-(((1R,4S)-4-(4-(((1S,4R)-4-(4-((4-(((S)-1-((1S,2R,4R)-2Acetamido-4-(tert-butylamino)cyclohexyl)-2-oxopyrrolidin-3-yl)amino)-6-(trifluoromethyl)quinazolin-2-yl)amino)piperidine-1-carbonyl)cyclohexyl)amino)-4-oxobutoxy)cyclohexyl)oxy)ethyl)-1-methyl-5-oxo-2-(pyridin-3-yl)pyrrolidine-3-carboxamide] | 0.316 nM | 5.00 | Emax at 33.33 µM ([2]; maximum percentage antagonism at highest concentration tested, 33.33 μM, read-out: Maximum Response (%)): 68%
